Experimental data reported in patent publication US10184115B2, “Mutated cellobiose dehydrogenase with increased substrate specificity” (DIRECTSENS GMBH, priority 2012, dated 2019).

Target: T1, Myriococcum thermophilum cellobiose dehydrogenase (CDH), recombinant wild type, SEQ ID NO: 1 (Thermothelomyces myriococcoides, UniProt A9XK88)
T1 sequence (A9XK88 22-828): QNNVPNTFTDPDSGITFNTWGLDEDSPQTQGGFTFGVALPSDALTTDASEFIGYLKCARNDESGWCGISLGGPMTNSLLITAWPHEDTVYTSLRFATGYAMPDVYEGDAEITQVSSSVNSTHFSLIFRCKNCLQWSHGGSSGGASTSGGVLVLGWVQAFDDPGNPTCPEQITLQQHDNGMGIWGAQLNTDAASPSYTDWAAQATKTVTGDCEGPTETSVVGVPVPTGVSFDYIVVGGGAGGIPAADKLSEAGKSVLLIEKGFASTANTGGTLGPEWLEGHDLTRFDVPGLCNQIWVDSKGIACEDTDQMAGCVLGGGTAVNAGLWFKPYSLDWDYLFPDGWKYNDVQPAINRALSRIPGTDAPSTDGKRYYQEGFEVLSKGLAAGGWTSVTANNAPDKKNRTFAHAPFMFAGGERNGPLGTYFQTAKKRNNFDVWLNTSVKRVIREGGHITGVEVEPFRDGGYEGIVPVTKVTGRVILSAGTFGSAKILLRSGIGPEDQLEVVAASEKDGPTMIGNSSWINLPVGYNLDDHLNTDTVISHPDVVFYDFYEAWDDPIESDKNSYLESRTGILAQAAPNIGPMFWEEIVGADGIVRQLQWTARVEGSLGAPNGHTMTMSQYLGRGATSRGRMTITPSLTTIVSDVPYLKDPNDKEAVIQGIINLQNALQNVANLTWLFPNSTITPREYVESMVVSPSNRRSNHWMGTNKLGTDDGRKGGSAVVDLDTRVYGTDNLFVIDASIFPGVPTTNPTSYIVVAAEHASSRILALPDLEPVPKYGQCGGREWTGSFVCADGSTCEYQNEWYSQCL
Assay: Steady-state kinetics, DCIP assay: M. thermophilum CDH wt
Type: biochemical
Settings: apparent, pH 4.5, 30° C.
Method: Enzyme activity was assayed at 30° C. using either the DCIP (Karapetyan et al., 2005 Journal of Biotechnology 121: 34-48) or cytochrome c (Canevascini et al., 1991, European Journal of Biochemistry 198: 43-52) as electron acceptor. […] Stock solutions of carbohydrates used for kinetic measurements were prepared in the respective buffer and allowed to stand overnight for mutarotation, while stock solutions of electron acceptors were prepared in water and immediately used. The reaction stoichiometry is 1 for the two-electron acceptor DCIP (1 mole of DCIP reduced per mole of carbohydrate oxidized), but 2 for the one-electron acceptor cytochrome c. Kinetic constants were calculated by fitting the observed data to the Henri-Michaelis-Menten equation or to the adapted model for substrate inhibition using nonlinear least-squares regression and the program SigmaPlot (Systat Software, San Jose, Calif., USA). […]
Recombinant wild-type CDH as well as variants were produced in 1 L baffled flasks. […] Increase in activity was monitored using the DCIP and the cytochrome c enzyme assays. […]
The sample was loaded on a 20 mL PHE Sepharose FF column (HR26/20) equilibrated with 50 mM Na-acetate buffer pH 5.5 containing 20% ammonium sulfate. […] Fractions were tested for CDH activity and pooled according to the highest Reinheitszahl (RZ, calculated from the absorbance ratio 420 nm/280 nm). […]

SMILES: OC[C@H]1OC(O)[C@H](O)[C@@H](O)[C@@H]1O (some centres unmarked) [Glucose, glucose]
- kcat: 4.8 s⁻¹
- kcat/KM: 12 M⁻¹ s⁻¹
